{"source": "patent EP2242752B1", "about": "“[…] IMIDAZOLES AS HEPATITIS C VIRUS INHIBITORS” (Bristol-Myers Squibb Company, priority 2008, dated 2009)"}
{"test_system": "HCV 1b genotype", "test": "HCV Replicon assay (HCV 16-377-neo replicon cells)", "format": "cell-based", "conditions": "Hepatitis C virus; HCV 1b genotype replicon cells; read-out: EC50 ranges against HCV 1b", "method": "An HCV Replion assay was utilized in the present disclosure, and was prepared, conducted and validated as described in commonly owned PCT/US2006/022197 and in O'Boyle et. al. Antimicrob Agents Chemother. 2005 Apr;49(4): 1346-53.\nHCV 16-377-neo replicon cells were used to test the currently described compound series as well as cells resistant to compound A due to a Y2065H mutation in NS5A (described in application PCT/US2006/022197). The compounds tested were determined to have more than 10-fold less inhibitory activity on cells resistant to compound A than wild-type cells indicating a related mechanism of action between the two compound series. Thus, the compounds of the present disclosure can be effective to inhibit the function of the HCV NS5A protein and are understood to be as effective in combinations as previously described in application PCT/US2006/022197 and commonly owned WO/O4014852. Further, the compounds of the present disclosure can be effective against the HCV 1b genotype. It should also be understood that the compounds of the present disclosure can inhibit multiple genotypes of HCV. […] In one embodiment compounds of the present disclosure are active against the 1a, 1b, 2a, 2b, 3a, 4a, and 5a genotypes.", "units": {"EC50": "nM"}}
{"smiles": "COC(=O)N[C@H](C(=O)N1CCC[C@H]1c1nc(-c2ccc(-c3ccc(-c4nc([C@@H]5CCCN5C(=O)[C@@H](NC(=O)OC)[C@@H](C)OC)[nH]c4C)cc3)cc2)c(C)[nH]1)[C@@H](C)OC", "note": "[Example E5m, methyl ((1S,2R)-2-methoxy-1-(((2S)-2-(4-(4'-(2-((2S)-1-(N-(methoxycarbonyl)-O-methyl-L-threonyl)-2-pyrrolidinyl)-5-methyl-1H-imidazol-4-yl)-4-biphenylyl)-5-methyl-1H-imidazol-2-yl)-1-pyrrolidinyl)carbonyl)propyl)carbamate]", "EC50": "0.001 to 0.999"}
{"smiles": "COC(=O)N[C@H](C(=O)N1CCC[C@H]1c1nc(-c2ccc(-c3ccc(-c4[nH]c([C@@H]5CCCN5C(=O)[C@@H](NC(=O)OC)C(C)C)nc4CC4OCCCO4)cc3)cc2)c[nH]1)C(C)C", "note": "[Example J14, methyl ((1S)-1-(((2S)-2-(4-(1,3-dioxan-2-ylmethyl)-5-(4'-(2-((2S)-1-((2S)-2-((methoxycarbonyl)amino)-3-methylbutanoyl)-2-pyrrolidinyl)-1H-imidazol-4-yl)-4-biphenylyl)-1H-imidazol-2-yl)-1-pyrrolidinyl)carbonyl)-2-methylpropyl)carba mate]", "EC50": "0.001 to 0.999"}
{"smiles": "COC(=O)N[C@H](C(=O)N1CCC[C@H]1c1nc(-c2ccc(-c3ccc(-c4[nH]c([C@@H]5CCCN5C(=O)[C@@H](NC(=O)OC)[C@@H](C)OC)nc4CC(OC)OC)cc3)cc2)c[nH]1)[C@@H](C)OC", "note": "[Example J14a, methyl ((1S,2R)-1-(((2S)-2-(4-(2,2-dimethoxyethyl)-5-(4'-(2-((2S)-1-(N-(methoxycarbonyl)-O-methyl-L-threonyl)-2-pyrrolidinyl)-1H-imidazol-4-yl)-4-biphenylyl)-1H-imidazol-2-yl)-1-pyrrolidinyl)carbonyl)-2-methoxypropyl)car bamate]", "EC50": "0.001 to 0.999"}
{"smiles": "COC(=O)N[C@H](C(=O)N1CCC[C@H]1c1nc(-c2ccc(-c3ccc(-c4[nH]c([C@@H]5CCCN5C(=O)[C@@H](NC(=O)OC)C(C)C)nc4CC(OC)OC)cc3)cc2)c[nH]1)C(C)C", "note": "[Example J14a.1, methyl ((1S)-1-(((2S)-2-(4-(2,2-dimethoxyethyl)-5-(4'-(2-((2S)-1-((2S)-2-((methoxycarbonyl)amino)-3-methylbutanoyl)-2-pyrrolidinyl)-1H-imidazol-4-yl)-4-biphenylyl)-1H-imidazol-2-yl)-1-pyrrolidinyl)carbonyl)-2-methylpropyl)carba mate]", "EC50": "0.001 to 0.999"}
{"smiles": "COC(=O)Cc1[nH]c([C@@H]2CCCN2C(=O)[C@@H](NC(=O)OC)[C@@H](C)OC)nc1-c1ccc(-c2ccc(-c3c[nH]c([C@@H]4CCCN4C(=O)[C@@H](NC(=O)OC)[C@@H](C)OC)n3)cc2)cc1", "note": "[Example J14b, methyl (2-((2S)-1-(N-(methoxycarbonyl)-O-methyl-L-threonyl)-2-pyrrolidinyl)-4-(4'-(2-((2S)-1-(N-(methoxycarbonyl)-O-methyl-L-threonyl)-2-pyrrolidinyl)-1H-imidazol-4-yl)4-biphenylyl)-1H-imidazol-5-yl)acetate]", "EC50": "0.001 to 0.999"}
{"smiles": "COC(=O)Cc1[nH]c([C@@H]2CCCN2C(=O)[C@@H](NC(=O)OC)C(C)C)nc1-c1ccc(-c2ccc(-c3c[nH]c([C@@H]4CCCN4C(=O)[C@@H](NC(=O)OC)C(C)C)n3)cc2)cc1", "note": "[Example J14b.1, methyl (2-((2S)-1-(N-(methoxycarbonyl)-L-valyl)-2-pyrrolidinyl)-4-(4'-(2-((2S)-1-(N-(methoxycarbonyl)-L-valyl)-2-pyrrolidinyl)-1H-imidazol-4-yl)-4-biphenylyl)-1H-imidazol-5-yl)acetate]", "EC50": "0.001 to 0.999"}
{"smiles": "CCCc1nc([C@@H]2CCCN2C(=O)[C@H](C)NC(=O)OC)[nH]c1-c1ccc(-c2ccc(-c3c[nH]c([C@@H]4CCCN4C(=O)[C@H](C)NC(=O)OC)n3)cc2)cc1", "note": "[Example J14c, methyl ((1S)-2-((2S)-2-(4-(4'-(2-((2S)-1-(N-(methoxycarbonyl)-L-alanyl)-2-pyrrolidinyl)-4-propyl-1H-imidazol-5-yl)-4-biphenylyl)-1H-imidazol-2-yl)-1-pyrrolidinyl)-1-methyl-2-oxoethyl)carbamate]", "EC50": "0.001 to 0.999"}
{"smiles": "CCCc1[nH]c([C@@H]2CCCN2C(=O)[C@@H](c2ccccc2)N(CC)CC)nc1-c1ccc(-c2ccc(-c3c[nH]c([C@@H]4CCCN4C(=O)[C@@H](c4ccccc4)N(CC)CC)n3)cc2)cc1", "note": "[Example J14c.1, (1R)-2-((2S)-2-(4-(4'-(2-((2S)-1-((2R)-2-(diethylamino)-2-phenylacetyl)-2-pyrrolidinyl)-1H-imidazol-4-yl)-4-biphenylyl)-5-propyl-1H-imidazol-2-yl)-1-pyrrolidinyl)-N,N-diethyl-2-oxo-1-phenylethanamine]", "EC50": "0.001 to 0.999"}
{"smiles": "CCCc1[nH]c([C@@H]2CCCN2C(=O)[C@@H](NC(=O)OC)C(C)C)nc1-c1ccc(-c2ccc(-c3c[nH]c([C@@H]4CCCN4C(=O)[C@@H](NC(=O)OC)C(C)C)n3)cc2)cc1", "note": "[Example J14c.2, methyl ((1S)-1-(((2S)-2-(4-(4'-(2-((2S)-1-((2S)-2-((methoxycarbonyl)amino)-3-methylbutanoyl)-2-pyrrolidinyl)-1H-imidazol-4-yl)-4-biphenylyl)-5-propyl-1H-imidazol-2-yl)-1-pyrrolidinyl)carbonyl)-2-methylpropyl)carba mate]", "EC50": "0.001 to 0.999"}
{"smiles": "COC(=O)N[C@H](C(=O)N1CC(F)(F)C[C@H]1c1nc(-c2ccc(-c3ccc(-c4c[nH]c([C@@H]5CCCN5C(=O)[C@@H](NC(=O)OC)C(C)C)n4)c(F)c3)cc2)c[nH]1)C(C)C", "note": "[Example J14e, methyl ((1S)-1-(((2S)-4,4-difluoro-2-(4-(3'-fluoro-4'-(2-((2S)-1-((2S)-2-((methoxycarbonyl)amino)-3-methylbutanoyl)-2-pyrrolidinyl)-1H-imidazol-4-yl)-4-biphenylyl)-1H-imidazol-2-yl)-1-pyrrolidinyl)carbonyl)-2-methylpropyl)carba mate]", "EC50": "0.001 to 0.999"}
{"smiles": "CCN(CC)[C@@H](C(=O)N1CC(F)(F)C[C@H]1c1nc(-c2ccc(-c3ccc(-c4c[nH]c([C@@H]5CCCN5C(=O)[C@@H](c5ccccc5)N(CC)CC)n4)c(F)c3)cc2)c[nH]1)c1ccccc1", "note": "[Example J14e.1, (1R)-2-((2S)-2-(4-(4'-(2-((2S)-1-((2R)-2-(diethylamino)-2-phenylacetyl)-4,4-difluoro-2-pyrrolidinyl)-1H-imidazol-4-yl)-3-fluoro-4-biphenylyl)-1H-imidazol-2-yl)-1-pyrrolidinyl)-N,N-diethyl-2-oxo-1-phenylethanamine]", "EC50": "0.001 to 0.999"}
{"smiles": "COC(=O)N[C@H](C(=O)N1CCC[C@H]1c1nc(-c2ccc(-c3ccc(-c4[nH]c([C@@H]5CCCN5C(=O)[C@@H](NC(=O)OC)C(C)C)nc4CO)cc3)cc2)c[nH]1)C(C)C", "note": "[Example J14f, methyl ((1S)-1-(((2S)-2-(4-(hydroxymethyl)-5-(4'-(2-((2S)-1-((2S)-2-((methoxycarbonyl)amino)-3-methylbutanoyl)-2-pyrrolidinyl)-1H-imidazol-4-yl)-4-biphenylyl)-1H-imidazol-2-yl)-1-pyrrolidinyl)carbonyl)-2-methylpropyl)carba mate]", "EC50": "0.001 to 0.999"}
{"smiles": "COC(=O)N[C@@H](C)C(=O)N1CCC[C@H]1c1nc(-c2ccc(-c3ccc(-c4[nH]c([C@@H]5CCCN5C(=O)[C@H](C)NC(=O)OC)nc4CO)cc3)cc2)c[nH]1", "note": "[Example J14f.1, methyl ((1S)-2-((2S)-2-(4-(4'-(4-(hydroxymethyl)-2-((2S)-1-(N-(methoxycarbonyl)-L-alanyl)-2-pyrrolidinyl)-1H-imidazol-5-yl)-4-biphenylyl)-1H-imidazol-2-yl)-1-pyrrolidinyl)-1-methyl-2-oxoethyl)carbamate]", "EC50": "1 to 99"}
{"smiles": "COC(=O)N[C@@H](C)C(=O)N1[C@@H]2C[C@@H]2C[C@H]1c1ncc(-c2ccc(-c3ccc(-c4cnc([C@@H]5C[C@H]6C[C@H]6N5C(=O)[C@H](C)NC(=O)OC)[nH]4)cc3)cc2)[nH]1", "note": "[Example M132, methyl ((1S)-2-((1R,3S,5R)-3-(4-(4'-(2-((1R,3S,SR)-2-(N(methoxycarbonyl)-L-alanyl)-2-azabicyclo[3.1.0]hex-3-yl)-1H-imidazol-4-yl)-4-biphenyl)-1H-imidazol-2-yl)-2-azabicyclo[3.1.0]hex-2-yl)-1-methyl-2-oxoethyl)carbamate]", "EC50": "0.001 to 0.999"}
{"smiles": "CC[C@H](NC(=O)OC)C(=O)N1[C@@H]2C[C@@H]2C[C@H]1c1nc(-c2ccc(-c3ccc(-c4c[nH]c([C@@H]5C[C@H]6C[C@H]6N5C(=O)[C@H](CC)NC(=O)OC)n4)cc3)cc2)c[nH]1", "note": "[Example M133, dimethyl (4,4'-biphenyldiylbis(1H-imidazole-4,2-diyl(1R,3S,5R)-2-azabicyclo[3.1.0]hexane-3,2-diyl((2S)-1-oxo-1,2-butanediyl)))biscarbamate]", "EC50": "0.001 to 0.999"}
{"smiles": "COC(=O)N[C@H](C(=O)N1[C@@H]2C[C@@H]2C[C@H]1c1nc(-c2ccc(-c3ccc(-c4c[nH]c([C@@H]5C[C@H]6C[C@H]6N5C(=O)[C@@H](NC(=O)OC)C5CC5)n4)cc3)cc2)c[nH]1)C1CC1", "note": "[Example M135, dimethyl (4,4'-biphenyldiylbis(1H-imidazole-4,2-diyl(1R,3S,5R)-2-azabicyclo[3.1.0]hexane-3,2-diyl((1S)-1-cyclopropyl-2-oxo-2,1-ethanediyl)))biscarbamate]", "EC50": "0.001 to 0.999"}
